Assays:
[1] = molecular target: T1, mouse PAC receptor-expressing CHO cell (PAC1/CHO cell) (Mus musculus, UniProt P70205); assay: CREB phosphorylation by PACAP stimulus, Western blot, PAC1/CHO cell; format: cell-based; details: PAC1/CHO cell; compound 10 μM to 10 nM, 30 minutes before 1 nM PACAP
T1 construct: expressed in transfected cells; host or cells: CHO cells
T1 sequence (P70205 21-496): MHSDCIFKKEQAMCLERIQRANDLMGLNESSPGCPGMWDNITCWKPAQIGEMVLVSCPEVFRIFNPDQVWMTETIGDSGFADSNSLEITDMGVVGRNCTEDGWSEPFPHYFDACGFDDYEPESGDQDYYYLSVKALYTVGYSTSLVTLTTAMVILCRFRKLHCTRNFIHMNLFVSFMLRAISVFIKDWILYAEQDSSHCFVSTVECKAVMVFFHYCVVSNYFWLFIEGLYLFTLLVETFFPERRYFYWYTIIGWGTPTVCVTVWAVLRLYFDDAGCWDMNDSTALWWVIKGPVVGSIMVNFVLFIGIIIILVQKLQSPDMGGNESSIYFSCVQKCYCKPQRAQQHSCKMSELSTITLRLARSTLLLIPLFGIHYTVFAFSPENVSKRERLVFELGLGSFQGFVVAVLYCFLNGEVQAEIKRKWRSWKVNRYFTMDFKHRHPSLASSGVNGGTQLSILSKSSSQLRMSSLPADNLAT
Protocol: The effect of each compound on the phosphorylation of CREB (cAMP-responsive element-binding protein) produced by a PACAP stimulus was examined by Western blot analysis using an anti-phosphorylated CREB (pCREB) antibody with a mouse PAC receptor-expressing CHO cell (PAC1/CHO cell) and a mouse VPAC1 receptor-expressing CHO cell (VPAC1/CHO cell).
Specifically, treatment with a compound (PA-8, PA-9, compounds 2j, 20 and 3d) at 10 μM to 10 nM or a solvent therefor (VEH: 0.1% DMSO-containing phosphate buffer solution) was performed for 30 minutes, 1 nM PACAP was then added, and protein was recovered within 30 minutes after a PACAP stimulus.

[2] = test system: mechanical allodynia induced by PACAP intrathecal administration; assay: Mechanical allodynia induced by PACAP intrathecal administration (von Frey test); format: in vivo, mouse; details: 100 pmol, simultaneous i.t.; FIG. 5C
Protocol: When single i.t. administration of PACAP (100 pmol/5 L) to mouse was performed, mechanical stimulus sensitive phenomenon (mechanical allodynia) occurred over a long period of time (for at least three months after the administration) (Non Patent Literature 1). […] The mechanical sensitive phenomenon induced by PACAP was not suppressed in an example in which a solvent (VEH: 0.2% DMSO-containing artificial cerebrospinal fluid) was used instead of the compounds.
(§1) Male ddY mice (6 to 12 weeks old) were used, and the threshold to a mechanical stimulus was evaluated by the vonFrey test. Specifically, the 50% withdrawal reflex threshold (Threshold) was calculated in accordance with the method of Chaplan et al. (Chaplan et al., J. Neurosci. Meth. 53, 55-63, 1994). Each compound was dissolved in 99.7% DMSO, and then the resulting solution was diluted with an artificial cerebrospinal fluid for preparation (final concentration of DMSO was 0.2%).

[3] = test system: mechanical allodynia induced by spinal nerve injury; assay: Spinal nerve ligation (SNL) model, i.t. administration on 14th day, mechanical allodynia; format: in vivo, mouse
Protocol: as §1
Spinal nerve ligation (SNL) models in which the fourth lumbar cord spinal nerves of male ddY (6 to 12 weeks old) were ligated with silk thread were used. The i.t. administration of a solvent (VEH: 10% DMSO-containing saline), PA-8, the compound 2j or the compound 2o (FIG. 9A), or PA-9 or the compound 3d (FIG. 9B) was performed on the 14th day after the operation. The method of causing a mechanical stimulus is the same as that of Example 5, and data were acquired for 24 hours after i.t. administration over time.

[4] = molecular target: T2, PAC1 receptor (Homo sapiens, UniProt P41586); details: Non Patent Literature 3; cited from earlier work
T2 sequence (P41586 21-468): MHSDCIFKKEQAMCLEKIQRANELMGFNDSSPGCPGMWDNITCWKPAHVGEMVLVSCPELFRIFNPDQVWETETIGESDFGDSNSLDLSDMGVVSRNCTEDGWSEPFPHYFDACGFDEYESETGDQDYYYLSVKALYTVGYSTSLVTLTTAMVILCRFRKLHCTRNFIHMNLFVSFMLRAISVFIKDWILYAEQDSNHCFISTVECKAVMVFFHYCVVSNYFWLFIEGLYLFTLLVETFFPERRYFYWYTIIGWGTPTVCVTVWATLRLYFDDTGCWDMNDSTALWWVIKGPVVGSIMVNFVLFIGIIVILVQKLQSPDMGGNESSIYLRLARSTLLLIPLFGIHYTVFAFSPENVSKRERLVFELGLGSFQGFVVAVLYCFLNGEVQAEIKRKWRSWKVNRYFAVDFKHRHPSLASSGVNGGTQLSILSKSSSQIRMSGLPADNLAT

[5] = Non Patent Literature 4; cited from earlier work

With `O=C(NCCc1c[nH]cn1)C1CC(=O)N(c2n[nH]c3ccccc23)C1` (stereo not drawn) [PA-9, reference compound] the “suppression of CREB phosphorylation by PACAP (1 nM)” value [1] was “suppressed CREB phosphorylation by PACAP (1 nM) depending on the concentration”, the “suppression of long-term mechanical allodynia induced by PACAP” value [2] was “strongly suppressed” and the “mechanical threshold 24 hours after the administration” value ([3]; 100 pmol i.t.) was “maintained the mechanical threshold highly significantly”. The anti-mechanical allodynia effect ([3]; 100 pmol i.t. on 14th day after operation) was “anti-mechanical allodynia effect equivalent to PA-8 and the compound 2j”, the “PAC1 receptor antagonistic action” value [4] was “have PAC1 receptor antagonistic action” and the analgesic effect [5] was “have analgesic effect”.

From US11365194B2, “Analgesic drug using PAC1 receptor antagonistic drug” (KAGOSHIMA UNIVERSITY, priority 2017, dated 2022)
